From ChEMBL document CHEMBL1123539, “[p-[(Thienylcarbonyl)amino]phenoxy]propanolamines derivatives as diuretic and beta-adrenergic receptor blocking agents” (1986)
Each block holds one compound with its values, some of them ahead of it.

Legend:
Rattus norvegicus [1] = experiment: Compound was tested for oral salidiuretic activity (control/drug treatment value) in rats expressed as urinary output. at a dose of 32 mg/kg; 7.87/8.10; type: functional, Urine
Rattus norvegicus [2] = experiment: Compound was tested for oral salidiuretic activity (control/drug treatment value) in rats expressed in Na+, mequiv/6 hr at a dose of 32 mg/kg; 0.177/0.305; type: functional, Urine
[3] = target: Beta-1 adrenergic receptor (Homo sapiens) (UniProt P08588); details: Canis lupus familiaris
Beta-1 adrenergic receptor (Homo sapiens), sequence (P08588 whole entry, looked up): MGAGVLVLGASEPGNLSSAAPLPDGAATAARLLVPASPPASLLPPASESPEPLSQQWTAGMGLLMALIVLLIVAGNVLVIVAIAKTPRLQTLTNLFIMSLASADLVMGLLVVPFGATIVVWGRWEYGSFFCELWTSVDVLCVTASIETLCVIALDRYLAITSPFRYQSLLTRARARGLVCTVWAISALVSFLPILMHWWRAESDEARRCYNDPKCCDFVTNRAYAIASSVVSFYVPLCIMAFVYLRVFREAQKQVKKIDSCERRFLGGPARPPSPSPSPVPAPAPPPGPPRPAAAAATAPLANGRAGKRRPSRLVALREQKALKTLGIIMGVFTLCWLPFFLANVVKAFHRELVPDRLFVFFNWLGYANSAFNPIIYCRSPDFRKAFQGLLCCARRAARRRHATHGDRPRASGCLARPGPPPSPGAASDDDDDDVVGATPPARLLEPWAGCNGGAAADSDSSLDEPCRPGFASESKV
Description: Compound was tested for beta-1 adrenergic receptor blocking activity in dogs

[4] = target: Beta-2 adrenergic receptor (Canis lupus familiaris) (UniProt P54833)
Beta-2 adrenergic receptor (Canis lupus familiaris), sequence (P54833 whole entry, looked up): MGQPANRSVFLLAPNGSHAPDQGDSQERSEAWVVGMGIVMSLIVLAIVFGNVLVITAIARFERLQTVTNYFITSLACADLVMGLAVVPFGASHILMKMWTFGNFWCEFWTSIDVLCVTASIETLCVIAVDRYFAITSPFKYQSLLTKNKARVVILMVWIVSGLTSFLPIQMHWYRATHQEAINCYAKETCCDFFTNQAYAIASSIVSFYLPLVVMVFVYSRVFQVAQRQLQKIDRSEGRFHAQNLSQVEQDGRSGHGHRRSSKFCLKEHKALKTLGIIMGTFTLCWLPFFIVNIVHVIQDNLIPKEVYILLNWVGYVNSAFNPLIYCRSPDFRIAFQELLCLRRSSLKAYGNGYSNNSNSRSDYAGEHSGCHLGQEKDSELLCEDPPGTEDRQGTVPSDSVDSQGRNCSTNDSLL
Description: The compound was tested for beta-2 adrenergic receptor blocking activity in dogs

Rattus norvegicus [5] = experiment: Compound was tested for oral salidiuretic activity (control/drug treatment value) in rats expressed in Na+, mequiv/6 h at a dose of 128 mg/kg; 0.102/0.380; type: functional, Urine
Rattus norvegicus [6] = experiment: Compound was tested for oral salidiuretic activity (control/drug treatment value) in rats expressed in Na+, mequiv/6 hr at a dose of 128 mg/kg; 0.198/0.885; type: functional, Urine
Rattus norvegicus [7] = experiment: Compound was tested for oral salidiuretic activity (control/drug treatment value) in rats expressed as urinary output. at a dose of 128 mg/kg; 8.17/12.83; type: functional, Urine
Rattus norvegicus [8] = experiment: Compound was tested for oral salidiuretic activity (control/drug treatment value) in rats expressed as urinary output. at a dose of 128 mg/kg; 8.42/6.25; type: functional, Urine
Rattus norvegicus [9] = experiment: Compound was tested for oral salidiuretic activity (control/drug treatment value) in rats expressed in Na+, mequiv/6 hr at a dose of 128 mg/kg; 0.186/0.179; type: functional, Urine
Rattus norvegicus [10] = experiment: Compound was tested for oral salidiuretic activity (control/drug treatment value) in rats expressed in Na+, mequiv/6 hr at a dose of 128 mg/kg; 0.201/1.197; type: functional, Urine
Rattus norvegicus [11] = experiment: Compound was tested for oral salidiuretic activity (control/drug treatment value) in rats expressed as urinary output. at a dose of 128 mg/kg; 7.33/13.83; type: functional, Urine
Rattus norvegicus [12] = experiment: Compound was tested for oral salidiuretic activity (control/drug treatment value) in rats expressed as urinary output. at a dose of 128 mg/kg; 8.42/6.75; type: functional, Urine
Rattus norvegicus [13] = experiment: Compound was tested for oral salidiuretic activity (control/drug treatment value) in rats expressed in Na+, mequiv/6 hr at a dose of 128 mg/kg; 0.186/0.243; type: functional, Urine
Rattus norvegicus [14] = experiment: Compound was tested for oral salidiuretic activity (control/drug treatment value) in rats expressed as urinary output. at a dose of 128 mg/kg; 8.72/8.02; type: functional, Urine
Rattus norvegicus [15] = experiment: Compound was tested for oral salidiuretic activity (control/drug treatment value) in rats expressed in Na+, mequiv/6 hr at a dose of 128 mg/kg; 0.163/0.133; type: functional, Urine
Rattus norvegicus [16] = experiment: Compound was tested for oral salidiuretic activity (control/drug treatment value) in rats expressed as urinary output. at a dose of 16 mg/kg; 7.33/9.75; type: functional, Urine
Rattus norvegicus [17] = experiment: Compound was tested for oral salidiuretic activity (control/drug treatment value) in rats expressed as urinary output. at a dose of 32 mg/kg; 7.33/9.17; type: functional, Urine
Rattus norvegicus [18] = experiment: Compound was tested for oral salidiuretic activity (control/drug treatment value) in rats expressed as urinary output. at a dose of 64 mg/kg; 7.33/10; type: functional, Urine
Rattus norvegicus [19] = experiment: Compound was tested for oral salidiuretic activity (control/drug treatment value) in rats expressed in Na+, mequiv/6 h at a dose of 128 mg/kg; 0.205/0.712; type: functional, Urine
Rattus norvegicus [20] = experiment: Compound was tested for oral salidiuretic activity (control/drug treatment value) in rats expressed in Na+, mequiv/6 hr at a dose of 32 mg/kg; 0.205/0.358; type: functional, Urine
Rattus norvegicus [21] = experiment: Compound was tested for oral salidiuretic activity (control/drug treatment value) in rats expressed in Na+, mequiv/6 h at a dose of 64 mg/kg; 0.205/0.514; type: functional, Urine
Rattus norvegicus [22] = experiment: Compound was tested for oral salidiuretic activity (control/drug treatment value) in rats expressed as urinary output. at a dose of 128 mg/kg; 7.33/11.50; type: functional, Urine
Rattus norvegicus [23] = experiment: Compound was tested for oral salidiuretic activity (control/drug treatment value) in rats expressed in Na+, mequiv/6 hr at a dose of 16 mg/kg; 0.205/0.350; type: functional, Urine
Rattus norvegicus [24] = experiment: Compound was tested for oral salidiuretic activity (control/drug treatment value) in rats expressed as urinary output. at a dose of 128 mg/kg; 7.67/6.97; type: functional, Urine
Rattus norvegicus [25] = experiment: Compound was tested for oral salidiuretic activity (control/drug treatment value) in rats expressed in Na+, mequiv/6 hr at a dose of 128 mg/kg; 0.310/0.148; type: functional, Urine
Rattus norvegicus [26] = experiment: Compound was tested for oral salidiuretic activity (control/drug treatment value) in rats expressed as urinary output. at a dose of 64 mg/kg; 10.33/9.33; type: functional, Urine
Rattus norvegicus [27] = experiment: Compound was tested for oral salidiuretic activity (control/drug treatment value) in rats expressed in Na+, mequiv/6 hr at a dose of 64 mg/kg; 0.140/0.355; type: functional, Urine
Rattus norvegicus [28] = experiment: Compound was tested for oral salidiuretic activity (control/drug treatment value) in rats expressed as urinary output. at a dose of 32 mg/kg; 10.33/10.08; type: functional, Urine
Rattus norvegicus [29] = experiment: Compound was tested for oral salidiuretic activity (control/drug treatment value) in rats expressed in Na+, mequiv/6 hr at a dose of 32 mg/kg; 0.140/0.417; type: functional, Urine
Rattus norvegicus [30] = experiment: Compound was tested for oral salidiuretic activity (control/drug treatment value) in rats expressed as urinary output. at a dose of 128 mg/kg; 8.72/8.15; type: functional, Urine
Rattus norvegicus [31] = experiment: Compound was tested for oral salidiuretic activity (control/drug treatment value) in rats expressed in Na+, mequiv/6 hr at a dose of 128 mg/kg; 0.163/0.139; type: functional, Urine
Rattus norvegicus [32] = experiment: Compound was tested for oral salidiuretic activity (control/drug treatment value) in rats expressed in Na+, mequiv/6 h at a dose of 128 mg/kg; 0.210/0.796; type: functional, Urine
Rattus norvegicus [33] = experiment: Compound was tested for oral salidiuretic activity (control/drug treatment value) in rats expressed as urinary output. at a dose of 128 mg/kg; 7.33/10.83; type: functional, Urine
Rattus norvegicus [34] = experiment: Compound was tested for oral salidiuretic activity (control/drug treatment value) in rats expressed in Na+, mequiv/6 hr at a dose of 128 mg/kg; 0.144/0.470; type: functional, Urine
Rattus norvegicus [35] = experiment: Compound was tested for oral salidiuretic activity (control/drug treatment value) in rats expressed as urinary output. at a dose of 128 mg/kg; 6.50/8.47; type: functional, Urine

SMILES: CC(C)(C)NCC(O)COc1ccc(NC(=O)c2cccs2)cc1C#N (configuration not stated)
Activity (Rattus norvegicus [5]): 0.102 | ID50 [3]: 0.022 mg/kg | ID50 [4]: 0.55 mg/kg

SMILES: CCOC(=O)c1cc(NC(=O)Cc2cccs2)ccc1OCC(O)CNC(C)(C)C (configuration not stated)
Activity (Rattus norvegicus [8]): 8.42 mL | Activity (Rattus norvegicus [9]): 0.186 | ID50 [3]: 0.004 mg/kg | ID50 [4]: 0.6 mg/kg

SMILES: CCOC(=O)c1cc(NC(=O)Cc2ccsc2)ccc1OCC(O)CNC(C)(C)C (configuration not stated)
Activity (Rattus norvegicus [12]): 8.42 mL | Activity (Rattus norvegicus [13]): 0.186 | ID50 [3]: 0.015 mg/kg | ID50 [4]: 0.38 mg/kg

SMILES: CC(C)(C)NCC(O)COc1ccc(NC(=O)c2cccs2)cc1Cl (configuration not stated)
Activity (Rattus norvegicus [26]): 10.33 mL | Activity (Rattus norvegicus [27]): 0.14 | ID50 [3]: 0.014 mg/kg | ID50 [4]: 0.4 mg/kg

SMILES: CCOC(=O)c1cc(NC(=O)Cc2cccs2)ccc1OCC(O)CNC(C)C (configuration not stated)
treated urinary output (Rattus norvegicus [30]): 8.15 mL | Activity (Rattus norvegicus [31]): 0.163

SMILES: CCCOC(=O)c1cc(NC(=O)c2cccs2)ccc1OCC(O)CNC(C)C (configuration not stated)
Activity (Rattus norvegicus [32]): 0.21 | Activity (Rattus norvegicus [33]): 7.33 mL

Now from value to compound, other results behind:

ID50 [3]: 0.022 mg/kg | ID50 [4]: > 1 mg/kg
SMILES: CC(=O)c1cc(NC(=O)c2cccs2)ccc1OCC(O)CNC(C)(C)C (configuration not stated)
Activity (Rattus norvegicus [1]): 7.87 mL | Activity (Rattus norvegicus [2]): 0.177

ID50 [3]: 0.25 mg/kg | ID50 [4]: > 1 mg/kg
SMILES: COC(=O)c1cc(NC(=O)c2cccs2)ccc1OCC(O)CNC(C)C (configuration not stated)
Activity (Rattus norvegicus [6]): 0.198 | Activity (Rattus norvegicus [7]): 8.17 mL

ID50 [3]: 0.32 mg/kg | ID50 [4]: > 1 mg/kg
SMILES: CC(C)OC(=O)c1cc(NC(=O)c2cccs2)ccc1OCC(O)CNC(C)(C)C (configuration not stated)
Activity (Rattus norvegicus [10]): 0.21 | Activity (Rattus norvegicus [11]): 7.33 mL

ID50 [3]: 0.02 mg/kg | ID50 [4]: > 1 mg/kg
SMILES: CCOC(=O)c1cc(NC(=O)Cc2ccsc2)ccc1OCC(O)CNC(C)C (configuration not stated)
Activity (Rattus norvegicus [14]): 8.72 mL | Activity (Rattus norvegicus [15]): 0.163

ID50 [3]: 0.3 mg/kg | ID50 [4]: 0.45 mg/kg
SMILES: CCOC(=O)c1cc(NC(=O)c2cccs2)ccc1OCC(O)CNC(C)C (configuration not stated)
Activity (Rattus norvegicus [16]): 7.33 mL | Activity (Rattus norvegicus [17]): 7.33 mL | Activity (Rattus norvegicus [18]): 7.33 mL | Activity (Rattus norvegicus [19]): 0.205 | Activity (Rattus norvegicus [20]): 0.205 | Activity (Rattus norvegicus [21]): 0.205 | Activity (Rattus norvegicus [22]): 7.33 mL | Activity (Rattus norvegicus [23]): 0.205

ID50 [3]: 0.12 mg/kg | ID50 [4]: > 1 mg/kg
SMILES: CC(C)(C)NCC(O)COc1ccc(NC(=O)c2cccs2)cc1C(N)=O (configuration not stated)
Activity (Rattus norvegicus [24]): 7.67 mL | Activity (Rattus norvegicus [25]): 0.301

ID50 [3]: 0.17 mg/kg | ID50 [4]: > 1 mg/kg
SMILES: CC(C)NCC(O)COc1ccc(NC(=O)c2cccs2)cc1Cl (configuration not stated)
Activity (Rattus norvegicus [28]): 10.33 mL | Activity (Rattus norvegicus [29]): 0.14

ID50 [3]: 0.19 mg/kg | ID50 [4]: > 1 mg/kg
SMILES: CCOC(=O)c1cc(NC(=O)c2ccsc2)ccc1OCC(O)CNC(C)C (configuration not stated)
Activity (Rattus norvegicus [34]): 0.144 | treated urinary output (Rattus norvegicus [35]): 8.47 mL
